Assay results reported in patent publication US20240415123A1, “METHODS AND COMPOSITIONS FOR ICAFOLIN HERBICIDE TOLERANCE” (Monsanto Technology LLC, priority 2023, published 2024).

Experiments:
Format in all cases: in vivo
[1] = tested on: transgenic soybean plants expressing CYP21; assay: Icafolin herbicide injury rating, greenhouse spray, CYP21 soybean; details: for Percent Injury 14 DAT / Percent injury 21 DAT: Table 8; for Percent Injury 14 DAT / injury: 14 DAT
From the text: The codon-optimized genes were placed into plant transformation cassettes with each CYP coding sequence operably linked to a constitutive expression element comprising the promoter, leader, and intron of Arabidopsis thaliana Ubiquitin 3 (SEQ ID NO:14) and a Medicago truncatula photosystem II terminator (SEQ ID NO:15). Two plant transformation vectors were created, each comprising one of the CYP gene cassettes and an aadA selectable marker expression cassette, conferring resistance to the antibiotics spectinomycin and streptomycin. Soybean cultivar AG3555 seed-derived embryo explants were transformed with the vectors described above by Agrobacterium-mediated transformation using known methods in the art, and positive-transformed plantlets were selected based on growth in the presence of spectinomycin. Plantlets comprising single copy events were grown in the greenhouse to produce R1 seeds. R1 plants were subsequently selected for the homozygous CYP positive plants, either by molecular analysis of young leaf tissue or by seed chipping prior to planting. These selected plants were then screened for tolerance to the icafolin herbicide.
Herbicide tolerance screening was performed by selecting R1 plants at roughly the V2-V3 developmental stage and applying the icafolin herbicide in a track sprayer under standard greenhouse conditions. Two independent transgenic events per transgene were selected for screening. The herbicide was formulated with 1% v/v methylated seed oil (MSO) and 2.5% v/v ammonium sulfate (AMS) and sprayed with a XR nozzle at 15 gallons per […] (GPA) to mimic field conditions. The icafolin formulation was sprayed at two rates: 5 g active ingredient (ai)/hectare (ha) and 25 g ai/ha. The treated soybean plants were returned to the greenhouse following spray application and allowed to grow under standard conditions. The plants were rated for herbicide injury at approximately 14 and 21 days after treatment (DAT). Untreated transgenic plants and control (wild-type) plants were used for phenotypic comparison. The herbicide injury rating accounts for plant malformation, stunting, chlorosis, necrosis, and plant death relative to the untreated control plants. An injury rating of approximately 90% or above indicates nearly complete plant death. An injury rating of less than 30% indicates partial tolerance and an injury rating of less than 20% indicates good tolerance. Injury ratings were collected and analyzed, and photographs of representative plants were taken.

[2] = tested on: transgenic soybean plants expressing CYP15; assay: Icafolin herbicide injury rating, greenhouse spray, CYP15 soybean
From the text: (§1) The codon-optimized polynucleotide sequences were placed into plant transformation cassettes with each CYP coding sequence operably-linked to a constitutive expression element comprising the promoter, leader, and intron sequence of Arabidopsis thaliana Ubiquitin 3 (SEQ ID NO:14) and a Medicago truncatula photosystem II terminator (SEQ ID NO:15). Four plant transformation vectors were created, each comprising one of the CYP gene expression cassettes and an aadA selectable marker expression cassette, conferring resistance to the antibiotics spectinomycin and streptomycin. Soybean cultivar AG3555 seed-derived embryo explants were transformed with the vectors by Agrobacterium-mediated transformation using known methods in the art, and transformed plantlets were selected based on growth in the presence of spectinomycin. Plantlets comprising single copy events were grown in the greenhouse to produce R1 seeds. R1 plants were subsequently selected for homozygous CYP-positive plants, either by molecular analysis of young leaf tissue or by seed chipping prior to planting. These selected plants were then screened for tolerance to icafolin herbicide.
(§2) Herbicide tolerance screens were performed by selecting R1 plants at roughly the V2-V3 developmental stage and applying icafolin herbicide with a track sprayer under standard greenhouse conditions. Two independent transgenic events per transgene were screened. The herbicide was formulated with 1% v/v methylated seed oil (MSO) and 2.5% v/v ammonium sulfate (AMS) and sprayed with a XR nozzle at 15 gallons per […] (GPA) to mimic field conditions. The icafolin used in this Example and in the experiments described in Examples 2-4 was a mixture of the methyl ester forms of the 2R, 4R and 2S, 4S isomers. The icafolin formulation was sprayed at two rates: 5 g active ingredient (ai)/hectare (ha) and 25 g ai/ha. The herbicide treated soybean plants were returned to the greenhouse following spray application and allowed to grow under standard conditions. Plants were rated for herbicide injury at approximately 14 and 21 days after treatment (DAT). Untreated transgenic plants and control (wild-type) plants were used for phenotypic comparison. The herbicide injury rating accounts for plant malformation, stunting, chlorosis, necrosis, and plant death relative to the untreated control plants. An injury rating of approximately 90% or above indicates nearly complete plant death. An injury rating of less than 30% indicates partial tolerance, and an injury rating of less than 20% indicates good tolerance. Injury ratings were collected and analyzed, and photographs of representative plants were taken.

[3] = tested on: transgenic soybean plants expressing CYP13; assay: Icafolin herbicide injury rating, greenhouse spray, CYP13 soybean; details: for Percent Injury 15 DAT / Percent injury 21 DAT: Experiment 1
From the text: as §1, §2

[4] = tested on: Soy transgenic plants expressing CYP15; assay: Field trial icafolin injury rating, CYP15 soybean; details: for Percent Plant Injury (21 DAT): averaged across repetitions, field locations and events
Procedure: Soy transgenic plants expressing CYP14 or CYP15 were assayed in small scale field trails across nine sites in the United States for tolerance to icafolin spray applications. The plants were grown in field plots and sprayed during the early vegetative stages when plants were roughly at the V3 stage. The icafolin formulation was sprayed at either a 5 g ai/ha or 25 g ai/ha application rate with 2 treatment replications per location. The plants were rated for herbicide injury at 7, 14, 21, and 28 days after treatment (DAT). A total of 12 events for CYP14 and 11 events for CYP15 were tested. An event transformed with a non-herbicide tolerance construct served as a negative control to provide a comparison for injury.

[5] = CYP21 Event 344, 5 g ai/ha icafolin
[6] = CYP21 Event 344, 25 g ai/ha icafolin
[7] = CYP21 Event 502, 5 g ai/ha icafolin
[8] = CYP21 Event 502, 25 g ai/ha icafolin
[9] = CYP15 Event 618, 5 g ai/ha icafolin, Experiment 2
[10] = CYP15 Event 618, 25 g ai/ha icafolin, Experiment 2
[11] = CYP15 Event 670, 5 g ai/ha icafolin, Experiment 2
[12] = CYP15 Event 670, 25 g ai/ha icafolin, Experiment 2
[13] = CYP15 Event 784, 5 g ai/ha icafolin, Experiment 2
[14] = CYP15 Event 784, 5 g ai/ha icafolin, Experiment 1
[15] = CYP15 Event 784, 25 g ai/ha icafolin, Experiment 2
[16] = CYP15 Event 784, 25 g ai/ha icafolin, Experiment 1
[17] = CYP15 Event 794, 5 g ai/ha icafolin, Experiment 2
[18] = CYP15 Event 794, 5 g ai/ha icafolin, Experiment 1
[19] = CYP15 Event 794, 25 g ai/ha icafolin, Experiment 2
[20] = CYP15 Event 794, 25 g ai/ha icafolin, Experiment 1
[21] = CYP13 Event 943, 5 g ai/ha icafolin
[22] = CYP13 Event 943, 25 g ai/ha icafolin
[23] = CYP13 Event 982, 5 g ai/ha icafolin
[24] = CYP13 Event 982, 25 g ai/ha icafolin

## C=C[C@]1(C(=O)N[C@H]2CO[C@@H](C(=O)OC)C2)CC(c2cc(F)cc(F)c2)=NO1 (relative stereo) [icafolin, methyl(2R*,4R*)-4-[[(5S)-3-(3,5-difluorophenyl)-5-vinyl-4H-isoxazole-5-carbonyl]amino]tetrahydrofuran-2-carboxylate]
[1]; CYP21, overall
  Tolerance to icafolin: good tolerance (an injury rating of less than 20% indicates good tolerance)
[1]; [5]
  Percent Injury 14 DAT: 2.5%
  Percent injury 21 DAT: 5.0%
[1]; [6]
  Percent Injury 14 DAT: 50%
  Percent injury 21 DAT: 37.5%
[1]; [7]
  Percent Injury 14 DAT: 7.5%
  Percent injury 21 DAT: 5.0%
[1]; [8]
  Percent Injury 14 DAT: 72.5%
  Percent injury 21 DAT: 62.5%
[1]; CYP21 events, 5 g ai/ha
  injury: less than 10%
[1]; one CYP21 event, 25 g ai/ha
  injury: about 50%
[1]; the other CYP21 event, 25 g ai/ha
  injury: about 72%
[2]; [9]
  Percent Injury 14 DAT: 23%
  Percent injury 21 DAT: 12%
[2]; [10]
  Percent Injury 14 DAT: 60%
  Percent injury 21 DAT: 32%
[2]; [11]
  Percent Injury 14 DAT: 10%
  Percent injury 21 DAT: 15%
[2]; [12]
  Percent Injury 14 DAT: 52%
  Percent injury 21 DAT: 34%
[2]; [13]
  Percent Injury 14 DAT: 8%
  Percent injury 21 DAT: 11%
[2]; [14]
  Percent Injury 15 DAT: 8%
  Percent injury 21 DAT: 3%
[2]; [15]
  Percent Injury 14 DAT: 78%
  Percent injury 21 DAT: 44%
[2]; [16]
  Percent Injury 15 DAT: 28%
  Percent injury 21 DAT: 32%
[2]; [17]
  Percent Injury 14 DAT: 12%
  Percent injury 21 DAT: 9%
[2]; [18]
  Percent Injury 15 DAT: 8%
  Percent injury 21 DAT: 6%
[2]; [19]
  Percent Injury 14 DAT: 78%
  Percent injury 21 DAT: 49%
[2]; [20]
  Percent Injury 15 DAT: 36%
  Percent injury 21 DAT: 41%
[2]; in vivo
  Tolerance to icafolin: unexpected tolerance
  injury: less than 30%
[3]; [21]
  Percent Injury 15 DAT: 42%
  Percent injury 21 DAT: 59%
[3]; [22]
  Percent Injury 15 DAT: 74%
  Percent injury 21 DAT: 80%
[3]; [23]
  Percent Injury 15 DAT: 41%
  Percent injury 21 DAT: 52%
[3]; [24]
  Percent Injury 15 DAT: 69%
  Percent injury 21 DAT: 80%
[3]; in vivo
  Tolerance to icafolin: did not show any noticeable tolerance
[4]; 5 g ai/ha icafolin
  Percent Plant Injury (21 DAT): 8.7%
[4]; 5 g ai/ha, 21 DAT
  injury ratings: below 15%
[4]; 25 g ai/ha
  Tolerance to icafolin: Incomplete tolerance
[4]; 25 g ai/ha icafolin
  Percent Plant Injury (21 DAT): 31.9%
